What all share (assay type): cell-based
Experiment [1] concerns P300/CBP. Description: P300/CBP cellular protein degradation. As for the experimental part: Cultured cells were washed with cold PBS once and lysed in cold RIPA buffer supplemented with protease inhibitors and phosphatase inhibitors (Beyotime Biotechnology). The solutions were then incubated at 4° C. for 30 min with gentle agitation to fully lysed cells. Cell lysates were centrifuged at 13,000 rpm for 10 min at 4° C. and pellets were discarded. Total protein concentrations in the lysates were determined following BCA assays (Beyotime Biotechnology). Cell lysates were mixed with Laemmli loading buffer and heated at 99° C. for 5 min. Proteins were resolved on SDS-PAGE and visualized using Western ECL Substrate kits on a ChemiDoc MP Imaging system (Bio-Rad). Protein bands were quantitated using the Image Lab software provided by Bio-Rad.

The subject of experiment [2] is KURAMOCHI
Nature of the experiment: Cell viability assay, KURAMOCHI
Particulars: 72 h, OC, 3 days, read-out: Cellular Anti-proliferation activity (IC50). As for the experimental part:
(§1) Cells were treated with CDK4/6 inhibitors palbociclib, ribociclib, or abemaciclib, or heterobifunctional compounds CPD-002 or CPD-031 following a 9-point serial dilution for 3 days.
(§2) Cells were seeded at a density of 2,000-5,000 cells per well in 96-well assay plates and treated with test compounds following a 10-point serial dilution for 3-6 days. Cell viability was determined using the CellTiter-Lumi assay kit according to the manufacturer's instructions. The dose-response curves were determined and IC50 values were calculated using the GraphPad Prism software following a nonlinear regression (least squares fit) method. Data presented was mean±standard deviation (SD) unless otherwise indicated.

Experiment [3] concerns T47D cells. Nature of the experiment: Flow cytometric analysis of Annexin V/7-AAD stained T47D cells. Particulars: 6 days. As for the experimental part:
ER^+ breast cancer T47D cells were treated with DMSO, palbociclib, heterobifunctional compound CPD-343, or negative control compound CPD-380 for 6 days at doses approximating IC50 and IC90 concentrations determined in FIGS. 10A and 13. Cells were harvested by trypsinization, staining was carried out using the Annexin V Apoptosis Detection Kit. The percentages of early apoptotic (Annexin V^+7-AAD^−, lower right quadrant), late apoptotic (Annexin V^+7-AAD^+, upper right quadrant) and necrotic cells (Annexin V-7-AAD^+, upper left quadrant) are indicated on dot plots. […] Furthermore, we developed one ER^+ breast cancer T47D model with acquired resistance after long period of treatment with 1 μM palbociclib (over IC90). Cells were deemed resistant when growing in the presence of palbo at the same rate as parental cells. Palbo resistance was determined by CellTiter-Lumi cell viability assay.
On the technique in general: In flow cytometry, cells or beads pass a laser one at a time.

The test system of experiment [4] is MDA-MB-157. Description: Cell viability assay, MDA-MB-157. The conditions noted are these: Homo sapiens, 72 h; MDA-MB-157, TNBC, 3 days; read-out: Cellular Anti-proliferation activity (IC50). As for the experimental part: as §1, §2
For experiment [5], the system named is MIA PaCa-2. Nature of the experiment: Cell viability assay, MIA PaCa-2. Particulars: Homo sapiens, 72 h; MIA PaCa-2, PC, 3 days; read-out: Cellular Anti-proliferation activity (IC50). Here is the method:
as §1, §2

Experiment [6] has as its system NCI-H522. Description: Cell viability assay, NCI-H522. Particulars: Homo sapiens, 72 h; NCI-H522, NSCLC, 3 days; read-out: Cellular Anti-proliferation activity (IC50). Here is the method:
as §1, §2

For experiment [7], the system named is MDA-MB-453. Description: Cell viability assay, MDA-MB-453. The conditions noted are these: Homo sapiens, 72 h; MDA-MB-453, TNBC, 3 days; read-out: Cellular Anti-proliferation activity (IC50). Here is the method:
as §1, §2

The test system of experiment [8] is Hs578T. Nature of the experiment: Cell viability assay, Hs578T. The conditions noted are these: Homo sapiens, Hs-578T, 72 h, TNBC, 3 days, read-out: Cellular Anti-proliferation activity (IC50). Here is the method: as §1, §2
Experiment [9] concerns BT-549. Description: Cell viability assay, BT-549. The conditions noted are these: Homo sapiens, 72 h; BT-549, TNBC, 3 days; read-out: Cellular Anti-proliferation activity (IC50). Here is the method:
as §1, §2

The test system of experiment [10] is Calu-1. Description: Cell viability assay, Calu-1. The conditions noted are these: Homo sapiens, 72 h; Calu-1, NSCLC, 3 days; read-out: Cellular Anti-proliferation activity (IC50). Here is the method: as §1, §2
The test system of experiment [11] is OVCAR3. Nature of the experiment: Cell viability assay, OVCAR3. Particulars: Homo sapiens, OVCAR-3, 72 h; OVCAR3, OC, 3 days; read-out: Cellular Anti-proliferation activity (IC50). As for the experimental part: as §1, §2
Experiment [12] has as its system MDA-MB-468. Description: Cell viability assay, MDA-MB-468. The conditions noted are these: Homo sapiens, 72 h; MDA-MB-468, TNBC, 3 days; read-out: Cellular Anti-proliferation activity (IC50). As for the experimental part:
as §1, §2

The subject of experiment [13] is Cal-62. Description: Cell viability assay, Cal-62. Particulars: Homo sapiens, 72 h; Cal-62, TC, 3 days; read-out: Cellular Anti-proliferation activity (IC50). Here is the method:
as §1, §2

Some results are limits rather than exact numbers.

`CC(=O)N1CCc2c(c(N3CCCc4cc(-c5cnn(C)c5)c(C(F)F)cc43)nn2C2CCN(CC(=O)NCCCCCC(=O)Nc3ccccc3C(=O)Nc3nc(C)c([N+](=O)[O-])s3)CC2)C1` [CPD-213, 2-(6-(2-(4-(5-Acetyl-3-(7-(difluoromethyl)-6-(1-methyl-1H-pyrazol-4-yl)-3,4-dihydroquinolin-1(2H)-yl)-4,5,6,7-tetrahydro-1H-pyrazolo[4,3-c]pyridin-1-yl)piperidin-1-yl)acetamido)hexanamido)-N-(4-methyl-5-nitrothiazol-2-yl)benzamide]: in experiment [1], the “P300/CBP Degradation (100 nM)” value is “D (degradation activity < 30%)”.

For `CC(=O)N1CCc2c(c(N3CCCc4cc(-c5cnn(C)c5)c(C(F)F)cc43)nn2C2CCN(CC(=O)NCCCCCCC(=O)Nc3ccccc3C(=O)Nc3nc(C)c([N+](=O)[O-])s3)CC2)C1` [CPD-214, 2-(7-(2-(4-(5-Acetyl-3-(7-(difluoromethyl)-6-(1-methyl-1H-pyrazol-4-yl)-3,4-dihydroquinolin-1(2H)-yl)-4,5,6,7-tetrahydro-1H-pyrazolo[4,3-c]pyridin-1-yl)piperidin-1-yl)acetamido)heptanamido)-N-(4-methyl-5-nitrothiazol-2-yl)benzamide], the “P300/CBP Degradation (100 nM)” value in experiment [1] is recorded as “D (degradation activity < 30%)”.

Turning to `CC(=O)N1CCc2c(c(N3CCCc4cc(-c5cnn(C)c5)c(C(F)F)cc43)nn2C2CCN(CC(=O)NCCCCCCCC(=O)Nc3ccccc3C(=O)Nc3nc(C)c([N+](=O)[O-])s3)CC2)C1` [CPD-215, 2-(8-(2-(4-(5-Acetyl-3-(7-(difluoromethyl)-6-(1-methyl-1H-pyrazol-4-yl)-3,4-dihydroquinolin-1(2H)-yl)-4,5,6,7-tetrahydro-1H-pyrazolo[4,3-c]pyridin-1-yl)piperidin-1-yl)acetamido)octanamido)-N-(4-methyl-5-nitrothiazol-2-yl)benzamide], in [1], the “P300/CBP Degradation (100 nM)” value is recorded as “D (degradation activity < 30%)”.

For the compound `CC(=O)N1CCc2c(c(N3CCCc4cc(-c5cnn(C)c5)c(C(F)F)cc43)nn2C2CCN(CC(=O)NCCCCCCCCC(=O)Nc3ccccc3C(=O)Nc3nc(C)c([N+](=O)[O-])s3)CC2)C1` [CPD-216, 2-(9-(2-(4-(5-Acetyl-3-(7-(difluoromethyl)-6-(1-methyl-1H-pyrazol-4-yl)-3,4-dihydroquinolin-1(2H)-yl)-4,5,6,7-tetrahydro-1H-pyrazolo[4,3-c]pyridin-1-yl)piperidin-1-yl)acetamido)nonanamido)-N-(4-methyl-5-nitrothiazol-2-yl)benzamide], the “P300/CBP Degradation (100 nM)” value in [1] is “D (degradation activity < 30%)”.

`CC(=O)N1CCc2c(c(N3CCCc4cc(-c5cnn(C)c5)c(C(F)F)cc43)nn2C2CCN(CC(=O)NCCCCCCCCCC(=O)Nc3ccccc3C(=O)Nc3nc(C)c([N+](=O)[O-])s3)CC2)C1` [CPD-217, 2-(10-(2-(4-(5-Acetyl-3-(7-(difluoromethyl)-6-(1-methyl-1H-pyrazol-4-yl)-3,4-dihydroquinolin-1(2H)-yl)-4,5,6,7-tetrahydro-1H-pyrazolo[4,3-c]pyridin-1-yl)piperidin-1-yl)acetamido)decanamido)-N-(4-methyl-5-nitrothiazol-2-yl)benzamide]: the “P300/CBP Degradation (100 nM)” value in experiment [1] is “D (degradation activity < 30%)”.

`CC(=O)N1CCc2c(c(N3CCCc4cc(-c5cnn(C)c5)c(C(F)F)cc43)nn2C2CCN(CC(=O)NCCCCCCCCCCC(=O)Nc3ccccc3C(=O)Nc3nc(C)c([N+](=O)[O-])s3)CC2)C1` [CPD-218, 2-(11-(2-(4-(5-Acetyl-3-(7-(difluoromethyl)-6-(1-methyl-1H-pyrazol-4-yl)-3,4-dihydroquinolin-1(2H)-yl)-4,5,6,7-tetrahydro-1H-pyrazolo[4,3-c]pyridin-1-yl)piperidin-1-yl)acetamido)undecanamido)-N-(4-methyl-5-nitrothiazol-2-yl)benzamide]: the “P300/CBP Degradation (100 nM)” value in experiment [1] is “D (degradation activity < 30%)”.

As for `CC(=O)c1c(C)c2cnc(Nc3ccc(N4CCNCC4)cn3)nc2n(C2CCCC2)c1=O` [Palbociclib, palbociclib], the IC50 in [2] is > 10 µM; in [4], > 10 µM; in [5] it was > 3 µM; in experiment [6], > 10 µM; in experiment [7], 2.7 µM; in experiment [8], > 10 µM. In addition, the IC50 in [9], in experiment [10], in [11], in experiment [12] and in [13] was > 10 µM throughout. Moreover, the “Annexin V+ population” value is 15.9% in [3] (100 nM) and 26.1% in experiment [3] (1 μM).

On to `CCN1CCN(Cc2ccc(Nc3ncc(F)c(-c4cc(F)c5nc(C)n(C(C)C)c5c4)n3)nc2)CC1` [abemaciclib], for which the IC50 in experiment [2] is 2.5 µM; in [4] it was > 10 µM; in [5] it was 0.55 µM; in [6], > 3 µM; in experiment [7] it was 0.03 µM; in experiment [8], 1.2 µM. Further, the IC50 is 2.07 µM in experiment [9]; 29 µM in experiment [10]; > 10 µM in experiment [11]; 3.09 µM in experiment [12]; 2.12 µM in experiment [13].

On to `CN(C)C(=O)c1cc2cnc(Nc3ccc(N4CCNCC4)cn3)nc2n1C1CCCC1` [ribociclib], for which the IC50 in experiment [2] is > 10 µM; in experiment [4], > 10 µM; in experiment [5] it was > 3 µM; in experiment [6] it was > 10 µM; in [7] it was > 3 µM; in [8] it was > 10 µM. Moreover, the IC50 in experiment [9], in [10], in experiment [11], in experiment [12] and in [13] was > 10 µM each time.
